US20240374558A1, “PREPARATION OF PHENE[…] […] STEREOISOMERS THEREOF AND PRECURSORS THEREOF” (priority 2022, published 2024)
Entries after “also recorded” stand apart in the source; their conditions may differ.

What was measured:
[1] = test system: rat forced swim test (FST); experiment: Rat forced swim test (FST); format: in vivo; conditions: single dose 10 mg/kg, IP, 30 min before testing
Description: The forced swim test (FST) is a classic model to assess the antidepressant-like activity of compounds that has been in use for over 40 years (Porsolt et al. (1977) Nature 266:730-732; Detke et al. (1995) Psychopharmacology 121:66-72). […] A single dose of 5 mg/kg methylone reduces immobility by approximately 50% compared to vehicle-treated controls, whereas a 15 mg/kg dose reduces immobility by nearly 100%. Accompanying changes in climbing and/or swimming behavior reflect noradrenergic and serotonergic activities of methylone, respectively.
All FST studies are performed and scored by an experimenter blind to treatment group and according to standard protocols. Briefly, rats are placed in a circular plexiglass container filled with water. Water temperature is maintained at 22-25° C. and changed for every animal. Day 1 (Training) consists of a 15 min acclimation trial, and Day 2 (Testing, 24 h later) consists of the 5 min test. A time sampling procedure is employed where animals are observed every 5 seconds for the duration of the test session (60 counts or 5 minutes) and scored for immobility (defined as the failure to struggle), swimming (defined as a circular movement around the tank), or climbing (defined as an upwards escape behavior). Data are expressed as the percent of the testing session (e.g., the number of immobility counts divided by 60). A p-value less than 0.05 indicates statistical significance after typical statistical analyses (e.g., unpaired t-test or ANOVA).
To determine that the prodrug and/or enantiomer has an antidepressant-like effect and to compare it to methylone, rats are treated with each compound 30 min prior to testing. Additional tests are run 24, 72, 168 hours post-dose or longer. Effects on Fear Extinction in a Model of Post-Traumatic Stress Disorder (PTSD)
Racemic methylone (10 mg/kg, IP) has a maximal antidepressant-like effect in the rat forced swim test (FST), reducing immobility by nearly 100% compared to vehicle treated controls. […]

hERG = molecular target: T1, hERG (Homo sapiens, UniProt Q12809); experiment: hERG Potassium Channel Assay, Qube APC; format: cell-based; conditions: Antagonist mode; CHO-hERG; test compound
T1 construct: host or cells: CHO-K1
T1 sequence (Q12809 whole entry): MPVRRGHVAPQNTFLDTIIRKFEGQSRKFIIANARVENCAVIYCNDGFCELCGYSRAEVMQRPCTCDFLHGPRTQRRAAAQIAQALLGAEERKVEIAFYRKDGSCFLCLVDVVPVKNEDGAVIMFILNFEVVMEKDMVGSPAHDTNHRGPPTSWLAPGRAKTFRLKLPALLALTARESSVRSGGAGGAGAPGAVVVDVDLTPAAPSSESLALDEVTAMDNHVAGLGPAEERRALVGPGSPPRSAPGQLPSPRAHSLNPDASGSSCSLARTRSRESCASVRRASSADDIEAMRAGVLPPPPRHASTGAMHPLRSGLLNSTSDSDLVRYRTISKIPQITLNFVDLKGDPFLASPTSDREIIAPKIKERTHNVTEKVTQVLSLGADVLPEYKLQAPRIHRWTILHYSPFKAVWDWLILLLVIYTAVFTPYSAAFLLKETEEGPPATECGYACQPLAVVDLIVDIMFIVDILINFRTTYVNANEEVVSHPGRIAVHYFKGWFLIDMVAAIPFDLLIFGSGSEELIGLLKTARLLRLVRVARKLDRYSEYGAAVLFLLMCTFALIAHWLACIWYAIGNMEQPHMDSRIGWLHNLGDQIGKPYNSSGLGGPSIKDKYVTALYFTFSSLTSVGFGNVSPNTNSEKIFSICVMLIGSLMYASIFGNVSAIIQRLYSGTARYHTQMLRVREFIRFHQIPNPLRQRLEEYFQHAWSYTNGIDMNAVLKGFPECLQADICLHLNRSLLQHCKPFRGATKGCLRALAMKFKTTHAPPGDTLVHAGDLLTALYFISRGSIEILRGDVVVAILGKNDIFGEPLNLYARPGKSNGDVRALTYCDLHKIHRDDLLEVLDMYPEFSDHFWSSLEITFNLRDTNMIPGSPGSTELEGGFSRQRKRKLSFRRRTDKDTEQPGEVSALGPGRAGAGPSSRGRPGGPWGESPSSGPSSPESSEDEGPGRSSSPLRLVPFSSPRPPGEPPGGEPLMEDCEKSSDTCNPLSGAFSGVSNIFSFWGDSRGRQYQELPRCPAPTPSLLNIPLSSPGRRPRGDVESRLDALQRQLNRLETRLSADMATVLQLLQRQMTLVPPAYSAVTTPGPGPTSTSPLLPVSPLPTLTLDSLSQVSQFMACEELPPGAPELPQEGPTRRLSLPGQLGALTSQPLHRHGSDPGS
Description: Where presented, IC50 values were determined by a non-linear, least squares regression analysis.
Recombinant HEK-293 cells stably transfected with human NavL.5 cDNA, recombinant HEK293 cell line expressing the human Cavl.2 (L-type voltage gated calcium channel, hCavl.2 alC/02a/a281, and recombinant CHO-K1 cells stably transfected with human hERG cDNA were used separately in each of these assays.
Ion Channels tested were Eurofins Panel Part Number: CPROFullQB2DR Voltage-Gated Sodium: HEK-Nav1.5 (Peak), HEK-Nav1.5 (Late, Antagonist) Voltage-Gated Potassium: HEK-Kv4.3/KChIP2, CHO-hERG, CHO-KCNQ1/minK Voltage-Gated Calcium: HEK-Cav1.2 Inward-Rectifying Voltage-Gated Potassium: HEK-Kir2.1.
hERG Potassium Channel Assay—Qube APC After whole cell configuration is achieved, the cells are held at −80 mV. Cells are held at this voltage for 50 ms to measure the leak current, which is subtracted from the tail current on-line. The cells are depolarized to +40 mV for 500 ms and then to −80 mV over a 100 ms ramp to elicit the hERG tail current. This paradigm is delivered once every 8s to monitor the current amplitude.

Compound	antidepressant-like effect (immobility) compared to vehicle [1]	Estimated IC50 (hERG)	antidepressant-like effect (immobility) compared to vehicle ([1]; 10 mg/kg)
CN[C@H](C)C(=O)c1ccc2c(c1)OCO2 [(R)-methylone]	no effect	N/C (N/C indicates observed mean inhibition was <25%)	
CN[C@@H](C)C(=O)c1ccc2c(c1)OCO2 [(S)-methylone]		N/C (N/C indicates observed mean inhibition was <25%)	Mimics the Rapid and Robust Antidepressant-like Activity of Racemic Methylone; also recorded: mimicked the rapid and robust antidepressant-like effect of racemic methylone
